From US9963496B2, “Stable glucagon analogues and use for treatment of hypoglycaemia” (Novo Nordisk A/S, priority 2014, dated 2018)
*1 amine or outer side, *2 acyl side, *3 side chain or, on linkers, in order; H or OH if unused. Where a SMILES comes first, the peptide text is derived from it. Side-chain parts run from the residue outwards. The star is where a group is joined. γGlu = O=C(O)[C@H](CCC(=O)[*:2])N[*:1]; Desaminohistidyl = O=C(CCc1c[nH]cn1)*

How the values were obtained:
[1] = target: T1, human glucagon receptor (Homo sapiens, UniProt P47871); experiment: Assay (II)(b): glucagon receptor binding, 125I-glucagon displacement on isolated membranes (SPA); conditions: displacement of 125I-glucagon, membranes of BHK cells with human glucagon receptor, 2 h at 25° C.; read-out: IC50 hGlucagonR
T1 construct: expressed in transfected cells; host or cells: BHK cells, clone BHK hGCGR A3*25; isolated membranes
Protocol: (b) Glucagon Receptor Binding
The purpose of this assay was to test the in vitro receptor binding activity of the glucagon derivatives of the invention. The receptor binding activity is a measure of affinity of a derivative for the human glucagon receptor.
The receptor binding of each compound to the human glucagon receptor was measured in a displacement binding assay. In this type of assay a labelled ligand (in this case 125I-glucagon) is bound to the receptor. Each derivative is added in a series of concentrations to isolated membranes containing the human glucagon receptor and displacement of the labelled ligand is monitored. The receptor binding is reported as the concentration at which half of the labelled ligand is displaced from the receptor, the IC50 value.
HME buffer consisted of 25 mM HEPES, 2 mM MgCl2 and 1 mM EDTA, and pH was adjusted to 7.4. Binding buffer consisted of 50 mM HEPES supplemented with 5 mM MgCl2, 1 mM CaCl2, 0.02% Tween 20 and 0.1% Ovalbumin, and pH was adjusted to 7.4.
The cells used in this assay (clone BHK hGCGR A3*25) were BHK cells stable transfected with an expression plasmid containing the cDNA encoding the human glucagon receptor.
The cells were grown at 5% CO2 in DMEM, 10% fetal calf serum, 1% Pen/Strep (Penicillin/Streptomycin) and 1.0 mg/mL of the selection marker G418. To make a membrane preparation the cells were grown to approximately 80% confluence. The cells were washed twice in phosphate-buffered saline and harvested. The cells were pelleted using a brief centrifugation and the cell pellet was kept on ice. The cells were lysed by adding approx. 5 mL HME buffer, mix by pipetting and snap freeze in liquid nitrogen. The cell lysate was quickly thawed and HME buffer added to 10 mL. The cell pellet was homogenised with an ULTRA-THURRAX dispersing instrument for 20-30 seconds. The homogenate was centrifuged at 20,000×G, 4° C. for 10 minutes. The pellet was resuspended (homogenised) in 1-2 mL HME buffer. The protein concentration was determined. The membranes were aliquoted and snap frozen in liquid nitrogen and stored at minus 80° C.
• 1. For the receptor binding assay 50 μl of the assay buffer was added to each well of an assay plate. • 2. Test compounds were serially diluted to give the following concentrations: 8×10 EE-7 M, 8×10 EE-8 M, 8×10 EE-9 M, 8×10 EE-10 M, 8×10 EE-11 M, 8×10 EE-12 M and 8×10 EE-13 M. Twenty-five μl were added to appropriate wells in the assay plate. • 3. Cell membrane aliquots were thawed and diluted to their working concentration. Fifty μl were added to each well in the assay plate. • 4. WGA SPA beads were suspended in assay buffer at 20 mg/mL. The suspension was diluted to 10 mg/mL in assay buffer just prior to addition to the assay plate. Fifty μl were added to each well in the assay plate. • 5. The incubation was started by adding 25 μl of 480 pM solution of [125I]-glucagon to each well of the assay plate. A 25 μl aliquot was reserved for measuring total counts/well. • 6. The assay plate was incubated for 2 h at 25° C. • 7. The assay plate was centrifuged for 10 min at 1500 rpm. • 8. The assay plate was read in a Packard TopCount NXT instrument. Calculations
The data from the TopCount instrument were transferred to GraphPad Prism software. The software averaged the values for the replicates and performed a non-linear regression.

[2] = physchem; format: physicochemical; conditions: pH 7.5
Outline: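 Peptide at 250 μM in 10 mM HEPES pH 7.5 with 1 μM Thioflavin T, incubated at 37° C with 960 rpm orbital shaking. ThT fluorescence (ex 444/em 485 nm) read every 20 min; lag-time (t0−2τ) and kapp (1/τ) from curve fit. Recovery is post-assay supernatant peptide by RP-HPLC as % of initial.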

[3] = target: T1, human glucagon receptor; experiment: Assay (I)(b): glucagon receptor activation, CRE luciferase reporter gene assay in BHK cells; format: cell-based; conditions: BHK cells expressing human glucagon receptor and CRE luciferase, 3 h incubation; read-out: EC50 hGlucagonR
Outline: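 BHK570 cells stably expressing the human glucagon receptor and CRE-luciferase, 5×10 EE3 cells/well in DMEM with 2% ovalbumin and 0.2% Pluronic F-68. Compounds at final 1×10 EE-6 to 1×10 EE-13 M, 3 h at 37° C. Luminescence read; EC50 by four-parameter fit.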

T1 sequence (P47871 26-477): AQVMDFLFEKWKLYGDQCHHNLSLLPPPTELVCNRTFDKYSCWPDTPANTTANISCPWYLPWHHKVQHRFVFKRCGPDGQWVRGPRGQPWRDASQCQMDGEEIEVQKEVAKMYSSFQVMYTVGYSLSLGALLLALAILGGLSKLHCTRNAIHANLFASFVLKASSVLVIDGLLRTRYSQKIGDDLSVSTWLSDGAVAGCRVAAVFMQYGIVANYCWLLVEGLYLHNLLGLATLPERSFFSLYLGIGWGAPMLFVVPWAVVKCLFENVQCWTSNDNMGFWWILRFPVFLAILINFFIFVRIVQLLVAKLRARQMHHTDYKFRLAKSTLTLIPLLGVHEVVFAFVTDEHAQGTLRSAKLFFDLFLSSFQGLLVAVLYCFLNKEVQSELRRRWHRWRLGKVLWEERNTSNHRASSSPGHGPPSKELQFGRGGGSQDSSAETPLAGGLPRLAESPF

Row | Structure (SMILES) | IC50 [1] | recovery at 250 μM [2] | EC50 [3]
1 | CC(=O)N[C@@H](CCC(=O)N[C@@H](CCC(=O)N[C@@H](CCC(=O)N[C@@H](CCC(=O)NCCCC[C@H](NC(=O)[C@@H](NC(=O)[C@H](Cc1ccccc1)NC(=O)[C@H](CCC(=O)O)NC(=O)[C@H](CCC(N)=O)NC(=O)[C@H](C)NC(=O)[C@H](CCCNC(=N)N)NC(=O)[C@H](CCCNC(=N)N)NC(=O)[C@H](CO)NC(=O)[C@H](CCC(=O)O)NC(=O)[C@H](CC(C)C)NC(=O)[C@H](Cc1ccc(O)cc1)NC(=O)[C@H](CCCCN)NC(=O)[C@H](CO)NC(=O)[C@H](Cc1ccc(O)cc1)NC(=O)[C@H](CC(=O)O)NC(=O)[C@H](CO)NC(=O)[C@@H](NC(=O)[C@H](Cc1ccccc1)NC(=O)[C@@H](NC(=O)CNC(=O)[C@H](Cc1c[nH]cn1)NC(=O)[C@H](CO)NC(=O)CCc1c[nH]cn1)[C@@H](C)O)[C@@H](C)O)C(C)C)C(=O)N[C@@H](Cc1c[nH]c2ccccc12)C(=O)N[C@@H](CC(C)C)C(=O)N[C@@H](CC(C)C)C(=O)N[C@@H](CO)C(=O)N[C@H](C(=O)O)[C@@H](C)O)C(=O)O)C(=O)O)C(=O)O)C(=O)O [Example 6, N^ϵ24-[(4S)-4-[[(4S)-4-[[(4S)-4-[[(4S)-4-acetamido-4-carboxybutanoyl]amino]-4-carboxybutanoyl]amino]-4-carboxybutanoyl]amino]-4-carboxybutanoyl]-[Imp1, His3, Glu15, Glu21, Lys24, Leu27, Ser28]-Glucagon] (Desaminohistidyl-SHGTFTSDYSKYLESRRAQEFVK([γGlu-γGlu-γGlu-γGlu-Ac])WLLST-OH) | 1.8 nM | 101% | 
2 | CC(=O)N[C@@H](CCC(=O)N[C@@H](CCC(=O)N[C@@H](CCC(=O)N[C@@H](CCC(=O)NCCCC[C@H](NC(=O)[C@@H](NC(=O)[C@H](Cc1ccccc1)NC(=O)[C@H](CC(=O)O)NC(=O)[C@H](CCC(N)=O)NC(=O)[C@H](C)NC(=O)[C@H](CCCNC(=N)N)NC(=O)[C@H](CCCNC(=N)N)NC(=O)[C@H](CC(C)C)NC(=O)[C@H](CC(=O)O)NC(=O)[C@H](CC(C)C)NC(=O)[C@H](Cc1ccc(O)cc1)NC(=O)[C@H](CCCCN)NC(=O)[C@H](CO)NC(=O)[C@H](Cc1ccc(O)cc1)NC(=O)[C@H](CC(=O)O)NC(=O)[C@H](CO)NC(=O)[C@@H](NC(=O)[C@H](Cc1ccccc1)NC(=O)[C@@H](NC(=O)CNC(=O)[C@H](Cc1c[nH]cn1)NC(=O)[C@H](CO)NC(=O)CCc1c[nH]cn1)[C@@H](C)O)[C@@H](C)O)C(C)C)C(=O)N[C@@H](Cc1c[nH]c2ccccc12)C(=O)N[C@@H](CC(C)C)C(=O)N[C@@H](CC(C)C)C(=O)N[C@@H](CO)C(=O)N[C@H](C(=O)O)[C@@H](C)O)C(=O)O)C(=O)O)C(=O)O)C(=O)O [Example 9, N^ϵ24-[(4S)-4-[[(4S)-4-[[(4S)-4-[[(4S)-4-acetamido-4-carboxybutanoyl]amino]-4-carboxybutanoyl]amino]-4-carboxybutanoyl]amino]-4-carboxybutanoyl]-[Imp1, His3, Leu16, Lys24, Leu27, Ser28]-Glucagon] (Desaminohistidyl-SHGTFTSDYSKYLDLRRAQDFVK([γGlu-γGlu-γGlu-γGlu-Ac])WLLST-OH) | 0.5 nM | 100% | 
3 | CC(=O)N[C@@H](CCC(=O)N[C@@H](CCC(=O)N[C@@H](CCC(=O)N[C@@H](CCC(=O)NCCCC[C@H](NC(=O)[C@@H](NC(=O)[C@H](Cc1ccccc1)NC(=O)[C@H](CCC(=O)O)NC(=O)[C@H](CCC(N)=O)NC(=O)[C@H](C)NC(=O)[C@H](CCCNC(=N)N)NC(=O)[C@H](CCCNC(=N)N)NC(=O)[C@H](CO)NC(=O)[C@H](CCC(=O)O)NC(=O)[C@H](CC(C)C)NC(=O)[C@H](Cc1ccc(O)cc1)NC(=O)[C@H](CCCCN)NC(=O)[C@H](CO)NC(=O)[C@H](Cc1ccc(O)cc1)NC(=O)[C@H](CC(=O)O)NC(=O)[C@H](CO)NC(=O)[C@@H](NC(=O)[C@H](Cc1ccccc1)NC(=O)[C@@H](NC(=O)CNC(=O)[C@H](Cc1c[nH]cn1)NC(=O)[C@H](CO)NC(=O)CCc1c[nH]cn1)[C@@H](C)O)[C@@H](C)O)C(C)C)C(=O)N[C@@H](Cc1c[nH]c2ccccc12)C(=O)N[C@@H](CC(C)C)C(=O)N[C@@H](CC(C)C)C(=O)N[C@@H](CCC(=O)O)C(=O)N[C@H](C(=O)O)[C@@H](C)O)C(=O)O)C(=O)O)C(=O)O)C(=O)O [Example 22, N^ϵ24-[(4S)-4-[[(4S)-4-[[(4S)-4-[[(4S)-4-acetamido-4-carboxybutanoyl]amino]-4-carboxybutanoyl]amino]-4-carboxybutanoyl]amino]-4-carboxybutanoyl]-[Imp1, His3, Glu15, Glu21, Lys24, Leu27, Glu28]-Glucagon] (Desaminohistidyl-SHGTFTSDYSKYLESRRAQEFVK([γGlu-γGlu-γGlu-γGlu-Ac])WLLET-OH) |  | 100% | 0.017 nM
